Test results from ChEMBL document CHEMBL2384945, “Discovery of RG7112: A Small-Molecule MDM2 Inhibitor in Clinical Development” (ACS Med Chem Lett, 2013).
pIC50: −log10 of the molar value.

Experiments:
SW480 = experiment: cells; conditions: Homo sapiens, SW480, 120 h
Description: Cytotoxicity against human SW480 cells expressing p53 mutant assessed as cell viability after 5 days by MTT assay

MDA-MB-435 = experiment: cells; conditions: Homo sapiens, MDA-MB-435, 120 h
Description: Cytotoxicity against human MDA-MB-435 cells expressing p53 mutant assessed as cell viability after 5 days by MTT assay

RKO = experiment: cells; conditions: Homo sapiens, 120 h
Description: Cytotoxicity against human RKO cells expressing wild type p53 assessed as cell viability after 5 days by MTT assay

SJSA-1 [1] = experiment: cells; conditions: Homo sapiens, SJSA-1, 120 h
Description: Cytotoxicity against human SJSA1 cells expressing wild type p53 assessed as cell viability after 5 days by MTT assay

HCT-116 = experiment: cells; conditions: Homo sapiens, HCT-116, 120 h
Description: Cytotoxicity against human HCT116 cells expressing wild type p53 assessed as cell viability after 5 days by MTT assay

[2] = Apparent half life in mouse at 50 mg/kg, po; type: ADME, organism-based; parameters: dose 50 mg/kg, route oral; conditions: in vivo, read-out: t1/2(app) (converted)
[3] = AUClast in mouse at 50 mg/kg, po; type: ADME, organism-based; parameters: time 0 - last, dose 50 mg/kg, route oral; conditions: plasma
[4] = Cmax in mouse at 50 mg/kg, po; type: ADME, organism-based; parameters: dose 50 mg/kg, route oral; conditions: in vivo
[5] = AUClast in mouse at 100 mg/kg, po; type: ADME, organism-based; parameters: time 0 - last, dose 100 mg/kg, route oral; conditions: plasma
[6] = Cmax in mouse at 100 mg/kg, po; type: ADME, organism-based; parameters: dose 100 mg/kg, route oral; conditions: in vivo
[7] = Apparent half life in mouse at 100 mg/kg, po; type: ADME, organism-based; parameters: dose 100 mg/kg, route oral; conditions: in vivo, read-out: t1/2(app) (converted)
[8] = Antitumor activity against human MHM cells xenografted in po dosed mouse relative to nutlin-3a; type: functional
SJSA-1 [9] = experiment: animal or person; conditions: Mus musculus, SJSA-1, po, read-out: TGI
Description: Antitumor activity against human SJSA1 cells xenografted in nude mouse assessed as tumor growth inhibition at 50 mg/kg, po relative to control

Row | Structure (SMILES) | pIC50 (SW480) | pIC50 (MDA-MB-435) | pIC50 (RKO) | pIC50 (SJSA-1 [1]) | pIC50 (HCT-116) | half-life [2] | AUC(0-t) [3] | Cmax [4] | AUC(0-t) [5] | Cmax [6] | half-life [7] | fold change (FC) [8] | inhibition in vivo at 50 mg/kg (SJSA-1 [9])
1 | CCOc1cc(C(C)(C)C)ccc1C1=N[C@@](C)(c2ccc(Cl)cc2)[C@@H](c2ccc(Cl)cc2)N1C(=O)N1CCN(CCCS(C)(=O)=O)CC1 | < 4.52 | < 4.52 | < 4.52 | 4.91 | 4.84 |  |  |  |  |  |  |  | 
2 | CCOc1cc(C(C)(C)C)ccc1C1=N[C@@](C)(c2ccc(Cl)cc2)[C@@](C)(c2ccc(Cl)cc2)N1C(=O)N1CCNC(=O)C1 | < 4.52 | < 4.52 | 4.63 | 5.12 | 4.79 |  |  |  |  |  |  |  | 
3 | CCOc1cc(C(C)(C)C)ccc1C1=N[C@@](C)(c2ccc(Cl)cc2)[C@@](C)(c2ccc(Cl)cc2)N1C(=O)N1CCNCC1 | 5.57 | 5.38 | 6.30 | 6.22 | 5.92 |  |  |  |  |  |  |  | 
4 | CCOc1cc(C(C)(C)C)ccc1C1=N[C@@](C)(c2ccc(Cl)cc2)[C@@](C)(c2ccc(Cl)cc2)N1C(=O)N1CCCCC1 | 4.64 | 4.60 | 5.17 | 5.14 | 4.97 |  |  |  |  |  |  |  | 
5 | CCOc1cc(C(C)(C)C)ccc1C1=N[C@@](C)(c2ccc(Cl)cc2)[C@@](C)(c2ccc(Cl)cc2)N1C(=O)N1CCN(C(C)=O)CC1 | 4.75 | 4.83 | 6.30 | 6.52 | 6.22 | 2.4 h | 64900 ng·h/mL | 19600 ng/mL |  |  |  |  | 
6 | CCOc1cc(C(C)(C)C)ccc1C1=N[C@@](C)(c2ccc(Cl)cc2)[C@@](C)(c2ccc(Cl)cc2)N1C(=O)N1CCN(CCC(F)(F)F)CC1 | 5.30 | 4.53 | 6.40 | 5.60 | 5.89 |  |  |  |  |  |  |  | 
7 | CCOc1cc(C(C)(C)C)ccc1C1=N[C@@](C)(c2ccc(Cl)cc2)[C@@](C)(c2ccc(Cl)cc2)N1C(=O)N1CCN(CCO)CC1 | 4.91 | 5.02 | 6.52 | 6.70 | 6.10 |  |  |  |  |  |  |  | 
8 | CCOc1cc(C(C)(C)C)ccc1C1=N[C@@](C)(c2ccc(Cl)cc2)[C@@](C)(c2ccc(Cl)cc2)N1C(=O)N1CCN(CCNS(C)(=O)=O)CC1 | 5.04 | 5.14 | 6.52 | 6.70 | 6.05 |  |  |  |  |  |  |  | 
9 | CCOc1cc(C(C)(C)C)ccc1C1=N[C@@](C)(c2ccc(Cl)cc2)[C@@](C)(c2ccc(Cl)cc2)N1C(=O)N1CCN(CCNC(C)=O)CC1 | 4.96 | 4.98 | 6.52 | 7.00 | 6.30 | 2.3 h | 136000 ng·h/mL | 12000 ng/mL |  |  |  |  | 
10 | CCOc1cc(C(C)(C)C)ccc1C1=N[C@@](C)(c2ccc(Cl)cc2)[C@@](C)(c2ccc(Cl)cc2)N1C(=O)N1CCN(CC(=O)N2CCCC2)CC1 | 4.84 | 5.02 | 6.30 | 6.52 | 6.15 | 4.7 h | 8300 ng·h/mL | 2300 ng/mL |  |  |  |  | 
11 | CCOc1cc(C(C)(C)C)ccc1C1=N[C@@](C)(c2ccc(Cl)cc2)[C@@](C)(c2ccc(Cl)cc2)N1C(=O)N1CCN(CC(=O)N2CCOCC2)CC1 | 4.84 | 4.76 | 6.22 | 6.70 | 6.22 |  |  |  |  |  |  |  | 
12 | CCOc1cc(C(C)(C)C)ccc1C1=N[C@@](CC)(c2ccc(Cl)cc2)[C@@](CC)(c2ccc(Cl)cc2)N1C(=O)N1CCN(CCCS(C)(=O)=O)CC1 | 4.61 | 4.55 | 4.90 | < 4.52 | 4.86 |  |  |  |  |  |  |  | 
13 | COc1ccc(C2=N[C@@H](c3ccc(Cl)cc3)[C@@H](c3ccc(Cl)cc3)N2C(=O)N2CCNC(=O)C2)c(OC(C)C)c1 [NUTLIN-3] |  |  | 5.82 | 5.82 | 5.82 |  |  |  | 65000 ng·h/mL | 12100 ng/mL | 2.6 h |  | 
14 | CCOc1cc(C(C)(C)C)ccc1C1=N[C@@](C)(c2ccc(Cl)cc2)[C@@](C)(c2ccc(Cl)cc2)N1C(=O)N1CCN(CCCS(C)(=O)=O)CC1 [RO-5045337] | 4.78 | 5.00 | 6.40 | 6.52 | 6.30 | 8.8 h | 251000 ng·h/mL | 15500 ng/mL |  |  |  | 4 | 74%
